{"source": "patent US7939552B2", "about": "“Benzyloxypropylamine derivative” (Nippon Zoki Pharmaceutical Co., Ltd., priority 2005, dated 2011)", "key": {"human NK1 receptor": {"target": "T1, human NK1 receptor (Homo sapiens, UniProt P25103)", "T1 construct": "expressed in transfected cells; host or cells: CHO cells (hNK1-CHO)", "T1 sequence (P25103 whole entry)": "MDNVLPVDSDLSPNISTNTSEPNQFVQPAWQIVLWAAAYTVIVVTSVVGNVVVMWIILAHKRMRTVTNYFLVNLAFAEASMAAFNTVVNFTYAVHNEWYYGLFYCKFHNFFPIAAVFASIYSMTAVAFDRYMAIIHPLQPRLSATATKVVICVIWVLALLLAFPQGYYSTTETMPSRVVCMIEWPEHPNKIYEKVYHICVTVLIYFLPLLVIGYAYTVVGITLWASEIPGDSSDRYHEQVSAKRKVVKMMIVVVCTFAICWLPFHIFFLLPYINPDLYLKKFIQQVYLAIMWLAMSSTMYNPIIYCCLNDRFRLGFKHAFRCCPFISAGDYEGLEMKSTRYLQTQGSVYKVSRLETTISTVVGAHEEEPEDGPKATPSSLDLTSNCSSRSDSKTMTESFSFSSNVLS", "experiment": "Human NK1 receptor binding assay (3H-Sar9-SP, hNK1-CHO cells)", "conditions": "room temperature 60 minutes", "procedure": "A supernatant liquid was removed from an hNK1-CHO cell incubation flask in a confluent state, trypsin (0.25%)-EDTA (1 mmol/L) (Gibco) was added thereto and the cells were exfoliated and recovered. After they were washed with a buffer A (pH 7.5; 50 mmol/L Tris hydrochloride 50 mmol/L, 150 mmol/L NaCl and 0.02% BSA) for one time (at […] for 5 minutes), cell numbers were adjusted and re-floated on a buffer for assay {a buffer A to which 40 μg/mL bacitracin (Sigma), 4 μg/mL leupeptin (Sigma), 4 μg/mL chymostatin (Sigma) and 4 μg/mL phosphoramidon (Sigma) were added}. The hNK1-CHO cells (100 μL) were placed in a tube (TPX-12, Maruemu) in which 300 μL of the buffer for assay was charged so as to make cells 10^5 per tube, 50 μL of a hot solution (^3H-Sar^9-SP, final concentration: […]) and 50 μL of a substance to be tested were added (a system of 500 μL), stirred and made to react at room temperature for 60 minutes. After completion of the reaction, it was filtered through a GF/B filter (25 mm diameter, Whatman) which was previously dipped in 0.1% polyethyleneimine p-70 (Wako Pure Chemical), washed with the buffer A (4 mL each for three times), placed in a vial and dried at 60° C. for one night. After drying, 10 mL of a scintillator (AL-1, toluene base, Dojindo) was added thereto and dpm was measured by a liquid scintillation counter (for 5 minutes/vial).\nWith regard to a nonspecific binding, it was defined as the dpm when 10 μmol/L of the substance P was added instead of the substance to be tested. The experiment was conducted in duplicate and at least three experiments were repeated. IC50 value was calculated using a probit method (statistic library II, Yukms)."}, "NK1 receptor": {"target": "T2, NK1 receptor (Cavia porcellus, UniProt P30547)", "T2 construct": "the brain was excised and the striatum was collected; from tissue; host or cells: striatum of male Hartley guinea pigs (Nippon SLC), homogenate after oral dosing", "T2 sequence (P30547 whole entry)": "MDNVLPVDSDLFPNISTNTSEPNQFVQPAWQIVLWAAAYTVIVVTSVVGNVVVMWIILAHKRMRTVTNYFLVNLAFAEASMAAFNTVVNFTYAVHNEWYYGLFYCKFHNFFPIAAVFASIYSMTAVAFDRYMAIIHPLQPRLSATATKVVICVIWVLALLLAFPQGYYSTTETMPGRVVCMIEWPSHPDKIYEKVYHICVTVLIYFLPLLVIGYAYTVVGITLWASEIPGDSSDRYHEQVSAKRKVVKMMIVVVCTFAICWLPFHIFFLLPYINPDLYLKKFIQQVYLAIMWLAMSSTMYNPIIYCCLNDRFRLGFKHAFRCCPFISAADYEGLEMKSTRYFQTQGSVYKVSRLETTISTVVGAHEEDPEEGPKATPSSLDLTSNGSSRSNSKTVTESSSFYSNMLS", "experiment": "Test for transfer into cerebral center of guinea pigs ([3H]substance P binding in striatum homogenate after oral dosing)", "format": "in vivo", "conditions": "4 hours after oral administration of 20 mg/mL at 5 mL/kg", "procedure": "Male guinea pigs of a Hartley strain (four weeks age, SPF, Nippon SLC) were purchased, subjected to a preliminary breeding for not shorter than one week, fasted for one night and used for the test where one group comprised eight guinea pigs. As a substance to be tested, the Compound 21 which is the compound of the present invention was suspended in 1% methyl cellulose […] to make 20 mg/mL. As a substance for comparison, LY-303870 [(R)-1-[N-(2-methoxybenzyl)acetylamino]-3-(1H-indol-3-yl)-2-[N-(2-(4-(piperidin-1-yl)piperidin-1-yl)acetyl)amino]propane] was dissolved in a 1% aqueous solution of MC to make 20 mg/mL.\nA test was conducted in accordance with a method of Iyengar, et al. Thus, a 1% aqueous solution of MC and the above-prepared solution of the test substance were orally administered in an administering dose of 5 mL/kg, then the animals were killed by carbon dioxide gas after 4 hours from administration of the test substance solution and after 1 hour from administration of the 1% aqueous MC solution and the comparative substance solution, the brain was excised and the striatum was collected. After measuring its wet weight, 50 mmol/L Tris-HCl (pH 7.5) was added thereto so as to make it 40 mg/mL followed by homogenizing for 10 seconds. […]"}, "[1]": {"experiment": "Pharmacokinetic test in blood by a single oral administration to guinea pigs", "format": "in vivo", "conditions": "100 mg/kg orally, plasma", "procedure": "Male guinea pigs of a Hartley strain (SPF, Nippon SLC) were purchased and subjected to a preliminary breeding for one week and the normally grown ones were fasted for one night and used for the test. The compound of the present invention was suspended in 1 g/dL methyl cellulose solution and 100 mg/kg was orally administered in an administering dose of 5 mL/kg. After 0.5, 1, 2, 4, 8 and 24 hour(s) from the oral administration, about 0.4 mL of blood was collected from the vein of median of foreleg using a heparinized capillary. Plasma prepared by its centrifugation (at 12,000 rpm for 10 minutes) was stored at −80° C. until the measurement. Measurement of the concentration in blood was conducted by a UV-detecting HPLC method."}}}
{"smiles": "O=C(NCC(COCc1cc(C(F)(F)F)cc(C(F)(F)F)c1)c1ccc(F)cc1)c1cc[n+]([O-])cc1", "note": "(stereo not drawn) [Compound 21, N-[3-(3,5-Bis(trifluoromethyl)benzyloxy)-2-(4-fluorophenyl)propyl]-1-oxyisonicotinamide]", "values": [{"measurement": "IC50", "setting": "human NK1 receptor", "result": 2.9, "unit": "nM"}, {"measurement": "specific binding of [3H]substance P", "setting": "NK1 receptor; guinea pig striatum homogenate, control group 1083.4±95.5 dpm", "result": "228.2±15.5", "unit": "dpm"}, {"measurement": "occupying rate of the NK1 receptor in the brain", "setting": "NK1 receptor; guinea pigs, mean value ±standard deviation", "result": "79.9±1.4", "unit": "%"}, {"measurement": "Cmax", "setting": "[1]", "result": 26900, "unit": "ng/mL"}, {"measurement": "Tmax", "setting": "[1]", "result": 4, "unit": "h"}, {"measurement": "t½", "setting": "[1]", "result": 3.2, "unit": "h"}]}
